Assay results from publication PMC7140498, “Predicting liver cytosol stability of small molecules” (Journal of Cheminformatics, 2020).

Assay: Metabolic stability assay (substrate depletion) in human liver cytosol fractions
Settings: both, human, liver cytosol fractions, pH 7.4, t1/2 [min] (Left), external validation, sheet Human, left compound
Experimental: (§1) Our assay (384-well format) consisted of two parts; a robotic system for incubation and sample clean up and an integrated LC/MS method to calculate the percent remaining of parent compound. Briefly, each reaction mixture (110 μL) consisted of a test compound (1 μM) and either human or mouse cytosol fractions (2 mg/mL) in phosphate buffer (100 mM) at pH 7.4. Samples were incubated in 384-well plates at 37 °C for 0, 5, 10, 15, 30 and 60 min. Sample analysis and t1/2 calculations were performed using a previously described method [15]. […] A set of control compounds for low and high cytosolic stability were routinely run in each plate.

N#Cc1ccc(C(=O)N2CCCOCCNC(=O)CC2)cc1 [N#Cc1ccc(C(=O)N2CCCOCCNC(=O)CC2)cc1] gave a half-life at 1 μM greater than 2 h.

Same assay, conditions: both, human, liver cytosol fractions, pH 7.4, t1/2 [min] (Right), external validation, sheet Human, right compound

Point of comparison: COc1ccc(CN2CC(Oc3ccc(F)c(F)c3)C2)cc1 [COc1ccc(CN2CC(Oc3ccc(F)c(F)c3)C2)cc1], half-life at 1 μM 0.5 h. Against it:
- CCOCCOC1CCN(C(=O)Nc2ccccc2)CC1 [CCOCCOC1CCN(C(=O)Nc2ccccc2)CC1] — higher, > 2 h
- COc1ccc(CN2CCC3(CC2)CC(=O)c2ccccc2O3)cc1 [COc1ccc(CN2CCC3(CC2)CC(=O)c2ccccc2O3)cc1] — higher, > 2 h
- CC(C)CN1C(=O)c2cccn2CC1C(=O)N1CCN(C)CC1 (stereo not shown) [CC(C)CN1C(=O)c2cccn2CC1C(=O)N1CCN(C)CC1] — 3.6-fold higher, 1.79 h
- COCCNC(=O)c1nc2sccn2c1-c1cccc(OC)c1 [COCCNC(=O)c1nc2sccn2c1-c1cccc(OC)c1] — higher, > 2 h

Same assay, conditions: both, human, liver cytosol fractions, pH 7.4, t1/2 [min] (left), in-house library pair, human transforms, left compound

Compound N#Cc1ccc(C(=O)N2CCCOCCNC(=O)CC2)cc1 [N#Cc1ccc(C(=O)N2CCCOCCNC(=O)CC2)cc1] has a half-life at 1 μM greater than 2 h.

Same assay, conditions: external validation, sheet Human, left compound

Point of comparison: CNC(=O)[C@@H]1CN(C(=O)c2cccc(C#N)c2)C[C@H]1COC, “t1/2 [min] (Left)” value 86.6 min. Against it:
- N#Cc1ccc(CN2C[C@@H](CO)[C@H](c3ccncc3)C2)cc1 — within 1.5-fold, 107.1 min
- Cc1ccccc1-c1n[nH]c2ncc(-c3cccc(F)c3)nc12 [Cc1ccccc1-c1n[nH]c2ncc(-c3cccc(F)c3)nc12] — 1.8-fold lower, 49 min
- Fc1cccc(-c2c[nH]c([C@@H]3COCCN3Cc3c[nH]cn3)n2)c1 — within 1.5-fold, 59.3 min
- O=c1c2nc(Nc3cccc(F)c3)ccc2ncn1-c1cccnc1 [O=c1c2nc(Nc3cccc(F)c3)ccc2ncn1-c1cccnc1] — within 1.5-fold, 96.4 min

Assay: Metabolic stability assay (substrate depletion) in mouse liver cytosol fractions
Settings: external validation, sheet Mouse, left compound
Experimental: as §1

Point of comparison: FC(F)(F)c1ccc2nc([C@H]3CCN(Cc4ccc(Cl)cc4)C3)[nH]c2c1, “t1/2 [min] (Left)” value 56.67 min. Against it:
- Cc1noc(-c2nc(-c3ccc(Cl)cc3)no2)n1 [Cc1noc(-c2nc(-c3ccc(Cl)cc3)no2)n1] — 3.6-fold lower, 15.6 min
- CCN1c2cc(C(=O)Nc3ccc(Cl)cc3)ccc2C(=O)N2CCCCC21 (stereo not shown) — 2.2-fold lower, 25.75 min
- CN1c2cc(C(=O)Nc3ccc(Cl)cc3)ccc2C(=O)N2CCCCC21 (stereo not shown) — within 1.5-fold, 83.39 min
- CCOc1cc(=O)n2c(c1C(=O)Nc1ccc(Cl)cc1)CCCC2 — 1.7-fold higher, 94.08 min
- CN(Cc1cccnc1)c1nc2c(c(=O)[nH]1)CCN(Cc1ccc(Cl)cc1)CC2 — within 1.5-fold, 74.11 min
- O=C(Nc1cccc(-c2nnc3n2CCCC3)c1)c1ccc(Cl)cc1 — within 1.5-fold, 56.47 min
- CN(C)c1nc2c(c(=O)[nH]1)CCN(Cc1ccc(Cl)cc1)CC2 — 2-fold higher, 114.48 min
- CN1C(=O)CO[C@H]2CN(Cc3ccc(Cl)cc3)C[C@H]21 — 2-fold higher, 116.11 min
- O=C1[C@H]2CN(Cc3ccc(Cl)cc3)C[C@H]2C(=O)N1Cc1ccc2c(c1)OCO2 — within 1.5-fold, 66.66 min

Same assay, conditions: male, CD-1, mouse, liver cytosol fractions, pH 7.4, t1/2 [min] (Right), external validation, sheet Mouse, right compound

Point of comparison: CN1c2cc(C(=O)Nc3ccc(Cl)c(F)c3)ccc2C(=O)N2CCCCCC21 (stereo not shown), half-life at 1 μM 0.383 h. Against it:
- CN1c2cc(C(=O)Nc3ccc(Cl)c(F)c3)ccc2C(=O)N2CCCCC21 (stereo not shown) — within 1.5-fold, 0.524 h
- O=C1NC2(CCN(C(=O)c3ccc(Cl)c(F)c3)CC2)CC1c1ccccc1 (stereo not shown) — 3.7-fold higher, 1.43 h
- CCN1c2cc(C(=O)Nc3ccc(Cl)c(F)c3)ccc2C(=O)N2CCCCC21 (stereo not shown) — within 1.5-fold, 0.412 h
- COc1cc(=O)n2c(c1C(=O)Nc1ccc(Cl)c(F)c1)CCCC2 — 3.8-fold higher, 1.47 h
- O=C1[C@H]2CN(Cc3ccc(Cl)c(F)c3)C[C@H]2C(=O)N1CCc1ccccc1 — 1.6-fold higher, 0.621 h
- COCC1CN(Cc2ccc(Cl)c(F)c2)CC12CCNCC2 (stereo not shown) [COCC1CN(Cc2ccc(Cl)c(F)c2)CC12CCNCC2] — higher, > 2 h
- O=C1[C@H]2CN(Cc3ccc(Cl)c(F)c3)C[C@H]2C(=O)N1Cc1ccc2c(c1)OCO2 — 2.4-fold higher, 0.921 h
- CN1CCN(c2nc3c(c(=O)[nH]2)CCN(Cc2ccc(Cl)c(F)c2)CC3)CC1 — higher, > 2 h
- O=C(Nc1cccc(-c2nnc3n2CCCC3)c1)c1cc[nH]n1 [O=C(Nc1cccc(-c2nnc3n2CCCC3)c1)c1cc[nH]n1] — higher, > 2 h
- COCC1CN(C(C)=O)CC12CCN(Cc1ccc(Cl)c(F)c1)CC2 (stereo not shown) — 3.6-fold higher, 1.36 h
- O=C1OCC2(CCN(Cc3cc[nH]n3)C2)N1CCN1CCOCC1 (stereo not shown) [O=C1OCC2(CCN(Cc3cc[nH]n3)C2)N1CCN1CCOCC1] — higher, > 2 h
